Measured values from ChEMBL document CHEMBL1201862, “PubChem BioAssay data set” (2004).
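Test compounds were applied to cells in 96-well plates for 48 hours at 5 doses. GI50: concentration for 50% inhibition of growth.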 Calls of active or inactive are those of the source. Cut-off read from the data, not from the text of the source: active = GI50 up to about 1.1 µM and inactive = higher.

Legend:
Assay in all cases: NCI-60 cell line screen, 48 h
TK-10 = test system: TK-10
NCI-H522 = test system: NCI-H522
CCRF-CEM = test system: CCRF-CEM
NCI-H460 = test system: NCI-H460
COLO 205 = test system: COLO 205
IGROV-1 = test system: IGROV-1
HT-29 = test system: HT-29
SN12C = test system: SN12C
M14 = test system: M14
ACHN = test system: ACHN
LOX IMVI = test system: LOX IMVI
OVCAR-8 = test system: OVCAR-8
RXF 393 = test system: RXF 393
HL-60 = test system: HL-60
SNB-75 = test system: SNB-75
HCT-116 = test system: HCT-116
HOP-62 = test system: HOP-62
DMS-273 = test system: DMS-273
SW-620 = test system: SW-620
HOP-18 = test system: HOP-18
SK-MEL-5 = test system: SK-MEL-5
SF-295 = test system: SF-295
OVCAR-3 = test system: OVCAR-3
KM12 = test system: KM12
UO-31 = test system: UO-31
OVCAR-4 = test system: OVCAR-4
U-251 = test system: U-251
NCI-H23 = test system: NCI-H23
UACC-257 = test system: UACC-257
M19-MEL = test system: M19-MEL
Malme-3M = test system: Malme-3M
LXFL 529 = test system: LXFL 529
DLD-1 = test system: DLD-1
SF-539 = test system: SF-539
A549 = test system: A549
SF-268 = test system: SF-268
SNB-19 = test system: SNB-19
CAKI-1 = test system: CAKI-1
SNB-78 = test system: SNB-78
DMS-114 = test system: DMS-114
UACC-62 = test system: UACC-62
HOP-92 = test system: HOP-92
SR = test system: SR
HCC 2998 = test system: HCC 2998
SK-MEL-28 = test system: SK-MEL-28
RXF 631 = test system: RXF 631
OVCAR-5 = test system: OVCAR-5
MOLT-4 = test system: MOLT-4
K562 = test system: K562
786-0 = test system: 786-0
XF498 = test system: XF498

Measured: GI50

Nc1c(Br)c(=O)[nH]c(=O)n1COCCO
inactive: TK-10 > 100 µM | NCI-H522 > 100 µM | CCRF-CEM > 100 µM | NCI-H460 > 100 µM | COLO 205 > 100 µM | IGROV-1 > 100 µM | HT-29 > 100 µM | SN12C > 100 µM | M14 > 100 µM | ACHN > 100 µM | LOX IMVI > 100 µM | OVCAR-8 > 100 µM | RXF 393 > 100 µM | HL-60 > 100 µM | SNB-75 > 100 µM | HCT-116 > 100 µM | HOP-62 > 100 µM | DMS-273 > 100 µM | SW-620 > 100 µM | HOP-18 > 100 µM | SK-MEL-5 > 100 µM | SF-295 > 100 µM | OVCAR-3 > 100 µM | KM12 > 100 µM | UO-31 > 100 µM | OVCAR-4 > 100 µM | U-251 > 100 µM | NCI-H23 > 100 µM | UACC-257 > 100 µM | M19-MEL > 100 µM | Malme-3M > 100 µM | LXFL 529 > 100 µM | DLD-1 > 100 µM | SF-539 > 100 µM | A549 > 100 µM | SF-268 > 100 µM | SNB-19 > 100 µM | CAKI-1 > 100 µM | SNB-78 > 100 µM | DMS-114 > 100 µM | UACC-62 > 100 µM | HOP-92 > 100 µM | SR > 100 µM | HCC 2998 > 100 µM | SK-MEL-28 > 100 µM | RXF 631 > 100 µM | OVCAR-5 > 100 µM | MOLT-4 > 100 µM | K562 > 100 µM | 786-0 > 100 µM | XF498 > 100 µM
